The text below walks through data of US20250177392A1, “BROAD SPECTRUM INHIBITORS OF CYTOMEGALOVIRUS” (MICROBIOTIX, INC., priority 2022, published 2025).

In data set [1] the test system is CMV AD169^IE2-YFP. Description: Anti-CMV activity (IC50) of NAPA compounds, AD169 IE2-YFP reporter virus high-content assay in fibroblasts. Format: cell-based, Human cytomegalovirus. As for the experimental part:
To identify CMV inhibitors, a high-content screening (HCS) early-stage-specific reporter assay using a CMV AD169 yellow-fluorescent protein (YFP) expressing virus (AD169^IE2-YFP) (Gardner et al., Antiviral Res., 113:49-61 (2015)) was developed to screen >112,000 compounds to identify potent inhibitors (IC50<10 μM) of cytomegalovirus having a minimal mammalian cytotoxicity (CC50) of preferably ≥100 μM. As a result, we have identified, isolated, and characterized a novel series of N-arylpyrimidinamines (NAPAs) that inhibit CMV infection. […] Further, the NAPA compounds are broadly effective at inhibiting virus infection of diverse strains and cell types.
The CMV IE1 and IE2 gene products are translated within 3-6 hours post infection (hpi) and function to stimulate viral promoters to initiate transcription of early and late viral genes (Cherrington et al., J. Virol., 63:1435-40 (1989); Meier et al., J. Virol., 71:1246-1255 (1997)). The CMV AD169 variant that expresses a viral protein chimera consisting of IE2-YFP (AD1691E2/YFP) was utilized to quantify virus infection in a high-throughput screen by a robust fluorescent signal localized exclusively to the nucleus (8-24 hpi) (Gardner et al., supra (2015); Cohen et al., Viruses, 8 (10): 295 (2016); Cohen et al., J. Virol., 90:10715-10727 (2016)). Using the AD1691E2-YFP reporter virus assay, a collection of the compound libraries (>112,000 compounds) was screened for inhibitors of the early stages of CMV replication using a confocal fluorescence microscopic plate reader (BioTek Cytation3). Infection was calculated as a percentage of nuclei containing YFP and cycloheximide (8 μM) was used as a positive control. The Z′ factor for the optimized assay was >0.5 which was sufficient to initiate screening.
We evaluated 300 primary hits using an assay funnel designed to prioritize compounds based on antiviral activity, specificity, and drug-like properties. This identified two candidates for hit-to-lead optimization that were not Pan Assay Interference compounds (PAINS) (Baell et al., J. Med. Chem., 53:2719-40 (2010); Capuzzi et al., J. Chem. Inf. Model 57:417-427 (2017); Dahlin et al., Assay Drug Dev. Technol., 14:168-174 (2016)). […] The NAPA series was chosen as the primary hit-to-lead series due to its synthetic accessibility and the >2-log range in potency observed in the preliminary SAR that provides a clear pathway to improving antiviral activity and drug-like properties.

For data set [2], the target named is CYP3A4 (Homo sapiens, UniProt P08684). Description: CYP3A4 inhibition at 10 μM. Format: in vitro ADME. The settings on record: % inhibition of CYP3A4 at 10 μM.
Sequence of CYP3A4 (P08684 whole entry, species assumed): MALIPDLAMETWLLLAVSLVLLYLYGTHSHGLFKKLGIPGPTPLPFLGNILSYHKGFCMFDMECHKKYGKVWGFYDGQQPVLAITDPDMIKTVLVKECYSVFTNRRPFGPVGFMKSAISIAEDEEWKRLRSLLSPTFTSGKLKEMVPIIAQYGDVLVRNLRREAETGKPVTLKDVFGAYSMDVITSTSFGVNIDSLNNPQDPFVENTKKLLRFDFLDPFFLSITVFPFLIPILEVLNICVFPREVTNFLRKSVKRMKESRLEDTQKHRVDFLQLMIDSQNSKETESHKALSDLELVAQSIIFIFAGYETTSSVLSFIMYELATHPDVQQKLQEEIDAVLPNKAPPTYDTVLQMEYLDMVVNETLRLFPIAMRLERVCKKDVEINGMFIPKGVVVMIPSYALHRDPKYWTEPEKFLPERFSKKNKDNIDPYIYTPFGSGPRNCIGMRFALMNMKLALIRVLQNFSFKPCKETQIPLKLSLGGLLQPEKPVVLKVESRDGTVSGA
The test system of data set [3] is CMV strains AD169, TB40/E^Flag-YFP, Towne, and TR. Description: CMV infection assay, panel of strains in fibroblasts. Format: cell-based, Human cytomegalovirus. The settings on record: Human betaherpesvirus 5, AD169, Fibroblast, read-out: IC50 values ranging. How it is done: HCMV strains AD169 (A), TB40/E Flag YFP (B), Towne (C and G), TR (D and F), Merlin (E), and TB40/E (H) infection of NHDF cells pre-treated with DMSO and 0, 1, 5, or 20 μM MBX-4992 or MBXC-4336, respectively, were assessed at 24 hpi based on IE1 expression by anti-IE1 immunostain. TB40/E (I) (MOI 0.25) and AD169^R (J) (MOI 0.25) infection of HTR-svNeo cells treated with DMSO and 0, 1, 5, or 20 μM MBX-4992 were assessed at 24 hpi based on IE1 expression by anti-IE1 immunostain. The % infection was determined using DMSO-treated as 100% infection. The error bars represent values in triplicate. Statistical tests were performed using ordinary one-way ANOVA with multiple comparisons to DMSO treated cells as a control and a Dunnett's post-test *, p<0.05; **, p<0.01; ****, p<0.0001.
Fibroblasts and ARPE-19 cells (10^4) were plated in 96-well plates (Greiner, Monroe, NC). […] At 18 hours post infection (hpi) cells were stained using a rabbit anti-IE1 antibody followed by an anti-rabbit Alexa 647 and measured using a Celigo Cytometer (Parsons et al., Antiviral Res., 193:105124 (2021); Stein et al., Nat. Commun., 10:2699 (2019)). Using the DMSO treated cells as 100% infection, the percent infection of the NAPA compound-treated cells was determined. […]

Data set [4] deals with HHV-6B Z29. Description: Herpes virus panel neutralization, HHV-6B. It is filed as cell-based, Human herpes virus 6B. How it is done: (§1) To determine the specificity of MBX-4992, additional neutralization experiments were conducted using a panel of herpes viruses performed in the presence of MBX-4992. […] Collectively, the antiviral activity of MBX-4992 is equivalent to that of GCV indicating specific inhibition of CMV replication.

For data set [5], the system named is HSV-2 G. Description: Herpes virus panel neutralization, HSV-2. It is filed as cell-based, Herpes simplex virus 2. How it is done:
as §1

In data set [6] the test system is MCMV Smith. The experiment in a line: Herpes virus panel neutralization, MCMV. Format: cell-based, Murine cytomegalovirus. How it is done: as §1
The test system of data set [7] is VZV Ellen. Description: Herpes virus panel neutralization, VZV. Format: cell-based, Varicella-Zoster virus. How it is done: as §1

Structures are written as SMILES.

Turning to `Cc1nc(Nc2ccc(NC(=O)c3ccco3)cc2)cc(N2CCCC2)n1` [MBX-4992], in data set [1] (CC50/IC50), the “selectivity index (SI)” value is listed as greater than 50. Moreover, the IC50 – broadly, the midpoint of a concentration-inhibition curve – is 1.72 µM in data set [1] (Human betaherpesvirus 5, AD169, Fibroblast); 0.5 to 8 µM in data set [3]; 43.7 µM in data set [4] (Human betaherpesvirus 6B); greater than 150 µM in data set [5] (Human alphaherpesvirus 2); 4.5 µM in data set [6] (Murid betaherpesvirus 1); greater than 30 µM in data set [7] (Human alphaherpesvirus 3). In data set [2], this molecule had a CYP of less than 10%. For the same molecule, the SI is greater than 2 in data set [4], 1 in data set [5], greater than 33 in data set [6] (MCMV Smith) and less than 5 in data set [7].
